Measured values reported in article PMC5522529, “Mechanisms of Paradoxical Activation of AMPK by the Kinase Inhibitors SU6656 and Sorafenib” (Cell Chemical Biology, 2017).
pEC50: −log10 of the molar value.

Experiments:
α2-KD A156T (AT) mutant = molecular target: T1, α2-KD A156T (AT) mutant (Homo sapiens, UniProt P54646, A156T); assay: Activation and phosphorylation of unphosphorylated α2-KD AT mutant by LKB1; format: biochemical
T1 construct: amplifying residues 1-310 with 5' BamH1 and 3' Xho1 sites; made in house; host or cells: bacteria
T1 sequence (P54646 1-310 A156T): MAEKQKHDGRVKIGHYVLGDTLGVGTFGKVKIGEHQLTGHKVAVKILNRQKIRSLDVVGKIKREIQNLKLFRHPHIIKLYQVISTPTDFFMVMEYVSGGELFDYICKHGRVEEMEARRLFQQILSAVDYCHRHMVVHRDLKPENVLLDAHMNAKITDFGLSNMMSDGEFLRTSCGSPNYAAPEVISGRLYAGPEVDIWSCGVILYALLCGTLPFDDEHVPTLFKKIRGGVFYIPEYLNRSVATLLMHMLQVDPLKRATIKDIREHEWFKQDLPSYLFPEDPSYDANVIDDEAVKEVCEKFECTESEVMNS
Text: (B) Effect of ATP concentration on kinase activity of α2-KD in the presence of increasing concentrations of SU6656. Results (mean, n = 2) were fitted to the equation Y= (Vmax × X)/(Km × (1 + I/Ki) + X), where Y is the activity, X is the ATP concentration, I is the concentration of SU6656, and Ki is the inhibitory constant for SU6656. […] (D and E) Effect of increasing concentrations of SU6656 on activity (D) and Thr172 phosphorylation (E) induced by LKB1 with unphosphorylated α2-KD (WT/AT mutant). Results in (D) are mean ± SEM (n = 3); and were fitted to same equation as Figure 4C. […] See also Figure S3. (F) Effect of AMP (2 mM) and SU6656 on inactivation of AMPK by PP2Cα in the presence of 5 mM ATP. […] (G) Effects of AMP or SU6656 on activation (top) and Thr172 phosphorylation (bottom) by LKB1 of AMPK-γ1 complexes expressed in HeLa cells. FLAG-tagged AMPK-γ1, either wild-type (WT) or R299G mutant (RG), was expressed in HeLa cells and AMPK complexes precipitated using anti-FLAG antibody. The complexes (which have low basal phosphorylation due to lack of LKB1 in HeLa cells) were incubated with or without a limiting amount of LKB1, AMP (200 μM) or SU6656 (3 μM) for 10 min and AMPK activity determined.
We next used unphosphorylated α2-KD and tested the effect of SU6656 on its activation and phosphorylation by LKB1.

Erk1/Erk2 = Erk1/Erk2 phosphorylation in HEK293 cells (western blot); format: cell-based, human; conditions: SU6656 100 μM, PP2 100 nM
Erk1/2 = Erk1/2 phosphorylation in SYF cells; format: cell-based, mouse; conditions: SU6656 100 μM, PP2 100 nM
AMPK = format: cell-based, mouse; conditions: SYF cells, 1 hr
Method: We next tested the effect of SU6656 in SYF cells, which are mouse embryo fibroblasts (MEFs) with null alleles for Src, Yes, and Fyn, the three Src kinases expressed in MEFs ([Klinghoffer et al., 1999]).
Top: AMPK activity (mean ± SEM, n = 4); bottom: western blots showing phosphorylation of Thr172 on AMPK, and of ERK1/2, in cells treated with DMSO (control), SU6656 (100 μM), or PP2 (100 nM) (n = 2). (B) As (A), but in SYF cells. (C) HeLa cells were transfected with DNAs encoding GFP alone, or GFP fused to WT, Y261F/Y365F (FF), or Y36F/Y261F/Y365F (FFF) mutants of LKB1; cells were treated with increasing concentrations of SU6656 for 1 hr and AMPK activity determined (mean ± SEM, n = 4). See also Figure S1. (D) HEK293 cells were transfected with DNAs encoding FLAG-tagged AMPK-α2 with or without a Y436F mutation. Cells were incubated with DMSO (control), 100 μM SU6656, 10 mM phenformin, or 10 μM A23187 for 1 hr; AMPK complexes were immunoprecipitated using anti-FLAG antibody and assayed. The top panels show kinase activities (mean ± SD, n = 3); the bottom panels show blots from the same experiment (n = 2). In all panels, asterisks indicate significant differences from DMSO controls; in (D), there were no significant differences between the WT and Y463F mutant. **p < 0.01, ****p < 0.0001. […]

[1] = tested on: AMPK-related kinases SIK1, SIK2, SIK3, SNARK, MARK2/3 and MARK4; assay: AMPK-related kinase activity in HeLa cells stably expressing LKB1; format: cell-based, human; conditions: HeLa cells expressing LKB1, 100 μM, 1 hr
Method: Figure 1 SU6656 Activates AMPK but Not AMPK-Related Kinases (A) HEK293 cells were incubated with the indicated concentrations of SU6656 or berberine (300 μM) for 1 hr; total AMPK activity was assayed in immunoprecipitates (top; mean ± SEM, n = 4), and phosphorylation of AMPK (Thr172), ACC (Ser80), and Raptor (Ser792) analyzed by western blotting (bottom; n = 2). (B) HEK293 cells were incubated with 100 μM SU6656 (1 hr), AMPK complexes containing α1, α2, β1, and β2 immunoprecipitated using isoform-specific antibodies, and AMPK activity measured (mean ± SEM, n = 4). (C) HeLa cells stably expressing LKB1 ([Fogarty et al., 2010]) were incubated with 100 μM SU6656 for 1 hr, AMPK or individual ARKs immunoprecipitated, and kinase assays carried out (antibodies that distinguish MARK2/MARK3 were not available, so they were assayed together). Results are means ± SEM (n = 2). In all panels, asterisks indicate significant differences from controls without SU6656. *p < 0.05, **p < 0.01, ****p < 0.0001. […]

human AMPK-α2 (WT) = human AMPK-α2 (WT) (Homo sapiens, UniProt P54646); assay: AMPK activity of FLAG-tagged WT AMPK-α2 expressed in HEK293 cells; format: cell-based; conditions: SU6656 100 μM, phenformin 10 mM, A23187 10 μM, 1 hr
Chain of human AMPK-α2 (WT) (P54646 whole entry, the tested form may be a part): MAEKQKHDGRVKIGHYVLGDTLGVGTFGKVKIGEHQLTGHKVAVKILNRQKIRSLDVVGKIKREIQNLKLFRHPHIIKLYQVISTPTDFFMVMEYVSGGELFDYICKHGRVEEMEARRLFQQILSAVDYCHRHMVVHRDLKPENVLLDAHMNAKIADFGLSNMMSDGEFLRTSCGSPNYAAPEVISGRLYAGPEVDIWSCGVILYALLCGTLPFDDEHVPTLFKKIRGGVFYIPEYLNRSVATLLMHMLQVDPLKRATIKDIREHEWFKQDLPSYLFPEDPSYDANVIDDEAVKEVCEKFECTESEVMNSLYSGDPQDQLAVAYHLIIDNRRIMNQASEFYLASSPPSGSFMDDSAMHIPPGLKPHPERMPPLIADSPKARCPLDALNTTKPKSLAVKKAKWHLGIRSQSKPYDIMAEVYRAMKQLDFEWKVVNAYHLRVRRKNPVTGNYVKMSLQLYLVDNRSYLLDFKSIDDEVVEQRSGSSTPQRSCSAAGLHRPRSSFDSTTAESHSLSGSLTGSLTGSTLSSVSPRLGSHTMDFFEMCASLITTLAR
Chain of human AMPK-α2 (WT) (P54619 whole entry partner, the tested form may be a part): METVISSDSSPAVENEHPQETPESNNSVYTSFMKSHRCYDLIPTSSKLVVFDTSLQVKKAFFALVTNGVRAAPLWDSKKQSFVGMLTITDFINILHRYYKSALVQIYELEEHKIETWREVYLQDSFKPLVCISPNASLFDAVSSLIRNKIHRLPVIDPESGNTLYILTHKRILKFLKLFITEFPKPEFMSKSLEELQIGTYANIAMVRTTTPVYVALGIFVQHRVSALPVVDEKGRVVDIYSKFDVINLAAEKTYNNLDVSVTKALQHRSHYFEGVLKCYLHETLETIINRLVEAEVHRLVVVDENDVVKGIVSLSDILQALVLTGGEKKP
Method: (§1) Top: AMPK activity (mean ± SEM, n = 4); bottom: western blots showing phosphorylation of Thr172 on AMPK, and of ERK1/2, in cells treated with DMSO (control), SU6656 (100 μM), or PP2 (100 nM) (n = 2). (B) As (A), but in SYF cells. (C) HeLa cells were transfected with DNAs encoding GFP alone, or GFP fused to WT, Y261F/Y365F (FF), or Y36F/Y261F/Y365F (FFF) mutants of LKB1; cells were treated with increasing concentrations of SU6656 for 1 hr and AMPK activity determined (mean ± SEM, n = 4). See also Figure S1. (D) HEK293 cells were transfected with DNAs encoding FLAG-tagged AMPK-α2 with or without a Y436F mutation. Cells were incubated with DMSO (control), 100 μM SU6656, 10 mM phenformin, or 10 μM A23187 for 1 hr; AMPK complexes were immunoprecipitated using anti-FLAG antibody and assayed. The top panels show kinase activities (mean ± SD, n = 3); the bottom panels show blots from the same experiment (n = 2). In all panels, asterisks indicate significant differences from DMSO controls; in (D), there were no significant differences between the WT and Y463F mutant. **p < 0.01, ****p < 0.0001.

LKB1 versus AMPK = tested on: LKB1 versus AMPK; parameters: method as in MRC Kinase Inhibitor Database; conditions: ref MRC Kinase Inhibitor Database; cited from earlier work
[2] = molecular target: T2, human AMPK-α2 Y436F mutant (Homo sapiens, UniProt P54646, Y436F); assay: AMPK activity of FLAG-tagged Y436F AMPK-α2 expressed in HEK293 cells; format: cell-based; conditions: SU6656 100 μM, phenformin 10 mM, A23187 10 μM, 1 hr
T2 construct: expressed in transfected cells; host or cells: HEK293 (transient transfection)
T2 sequence (P54646 whole entry Y436F): as the sequence (P54646 whole entry, the tested form may be a part) above, with Y436F counted along it
T2 sequence (P54619 whole entry partner): as the sequence (P54619 whole entry partner, the tested form may be a part) above
Method: as §1

[3] = parameters: method as in Strumberg et al., 2007; conditions: human clinical trials; ref Strumberg et al., 2007; cited from earlier work

Structure (SMILES)	pEC50 (α2-KD A156T (AT) mutant)	activation of α2-KD by LKB1 (α2-KD A156T (AT) mutant)	Erk1/Erk2 phosphorylation (Erk1/Erk2)	Erk1/2 phosphorylation (Erk1/2)	AMPK activity / Thr172 phosphorylation (AMPK)	activity of AMPK-related kinases (ARKs) [1]	AMPK activity in anti-FLAG immunoprecipitates (human AMPK-α2 (WT))	potency of LKB1 inhibition relative to AMPK inhibition (LKB1 versus AMPK)	AMPK activation response with Y436F mutation [2]	peak plasma sorafenib [3]
CN(C)S(=O)(=O)c1ccc2c(c1)/C(=C/c1cc3c([nH]1)CCCC3)C(=O)N2 [SU6656]	7.15	1.07 fold	reduced phosphorylation of Erk1/Erk2	inhibited Erk1/2 phosphorylation	still activated and increased Thr172 phosphorylation of AMPK	none of the ARKs assayed were activated	all activated AMPK	inhibition of LKB1 was less potent than that of AMPK	unaffected by the Y436F mutation	
CNC(=O)c1cc(Oc2ccc(NC(=O)Nc3ccc(Cl)c(C(F)(F)F)c3)cc2)ccn1 [sorafenib]										6 to 20 µM
